Experimental data reported in article PMC4917279 (Journal of Medicinal Chemistry, 2016).

Tests used:
Assay in all cases: KINOMEscan
Type in all cases: binding
Conditions in all cases: read-out: %Ctrl @ 1000 nM
MELK = target: T1, MELK (Homo sapiens, UniProt Q14680)
T1 construct: purchased DiscoveRx KINOMEscan

STK33 = target: T2, STK33 (Homo sapiens, UniProt Q9BYT3)
T2 construct: purchased DiscoveRx KINOMEscan

PIK3CA(Q546K) = target: T3, PIK3CA(Q546K) (Homo sapiens, UniProt P42336, Q546K)
T3 construct: purchased DiscoveRx KINOMEscan
T3 sequence (P42336 whole entry Q546K): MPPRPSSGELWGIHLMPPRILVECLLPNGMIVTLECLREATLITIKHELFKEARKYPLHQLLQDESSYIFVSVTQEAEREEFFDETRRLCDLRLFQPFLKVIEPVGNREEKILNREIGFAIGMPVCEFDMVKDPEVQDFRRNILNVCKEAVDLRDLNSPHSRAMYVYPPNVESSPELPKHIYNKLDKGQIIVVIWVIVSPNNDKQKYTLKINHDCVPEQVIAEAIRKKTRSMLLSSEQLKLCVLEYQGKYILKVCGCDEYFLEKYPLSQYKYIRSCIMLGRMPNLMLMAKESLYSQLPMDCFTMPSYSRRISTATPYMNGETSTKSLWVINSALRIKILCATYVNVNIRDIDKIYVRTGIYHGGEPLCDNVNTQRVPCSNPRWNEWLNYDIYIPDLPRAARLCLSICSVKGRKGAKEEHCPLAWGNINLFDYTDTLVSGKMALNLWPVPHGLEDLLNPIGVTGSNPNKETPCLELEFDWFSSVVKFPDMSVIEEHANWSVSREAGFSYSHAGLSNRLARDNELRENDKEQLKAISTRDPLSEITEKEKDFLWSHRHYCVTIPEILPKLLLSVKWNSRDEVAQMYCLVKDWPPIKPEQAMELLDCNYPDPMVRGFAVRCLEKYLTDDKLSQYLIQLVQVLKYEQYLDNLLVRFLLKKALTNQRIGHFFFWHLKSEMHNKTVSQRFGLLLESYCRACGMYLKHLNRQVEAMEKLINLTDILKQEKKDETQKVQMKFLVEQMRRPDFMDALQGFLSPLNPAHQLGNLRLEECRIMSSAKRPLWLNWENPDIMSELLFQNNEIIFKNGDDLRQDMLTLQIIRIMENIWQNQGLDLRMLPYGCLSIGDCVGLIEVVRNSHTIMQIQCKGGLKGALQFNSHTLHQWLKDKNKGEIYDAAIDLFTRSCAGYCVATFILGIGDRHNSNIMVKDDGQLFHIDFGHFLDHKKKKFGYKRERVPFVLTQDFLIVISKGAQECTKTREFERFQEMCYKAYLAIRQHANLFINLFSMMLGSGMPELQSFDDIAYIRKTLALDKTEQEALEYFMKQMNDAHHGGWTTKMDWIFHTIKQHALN

[1] = target: T4, JAK1(JH2domain-pseudokinase) (Homo sapiens, UniProt P23458)
T4 construct: JAK1(JH2domain-pseudokinase); purchased DiscoveRx KINOMEscan

MET(Y1235D) = target: T5, MET(Y1235D) (Homo sapiens, UniProt P08581, Y1235D)
T5 construct: purchased DiscoveRx KINOMEscan

KIT(A829P) = target: T6, KIT(A829P) (Homo sapiens, UniProt P10721, A829P)
T6 construct: purchased DiscoveRx KINOMEscan

MAP3K15 = target: T7, MAP3K15 (Homo sapiens, UniProt Q6ZN16)
T7 construct: purchased DiscoveRx KINOMEscan

DDR1 = target: T8, DDR1 (Homo sapiens, UniProt Q08345)
T8 construct: purchased DiscoveRx KINOMEscan

MEK5 = target: T9, MEK5 (Homo sapiens, UniProt Q13163)
T9 construct: purchased DiscoveRx KINOMEscan

TAK1 = target: T10, TAK1 (Homo sapiens, UniProt O43318)
T10 construct: purchased DiscoveRx KINOMEscan

KIT(V559D,V654A) = target: T11, KIT(V559D,V654A) (Homo sapiens, UniProt P10721, V559D/V654A)
T11 construct: purchased DiscoveRx KINOMEscan

ALK = target: T12, ALK (Homo sapiens, UniProt Q9UM73)
T12 construct: purchased DiscoveRx KINOMEscan
T12 sequence (Q9UM73 19-1620): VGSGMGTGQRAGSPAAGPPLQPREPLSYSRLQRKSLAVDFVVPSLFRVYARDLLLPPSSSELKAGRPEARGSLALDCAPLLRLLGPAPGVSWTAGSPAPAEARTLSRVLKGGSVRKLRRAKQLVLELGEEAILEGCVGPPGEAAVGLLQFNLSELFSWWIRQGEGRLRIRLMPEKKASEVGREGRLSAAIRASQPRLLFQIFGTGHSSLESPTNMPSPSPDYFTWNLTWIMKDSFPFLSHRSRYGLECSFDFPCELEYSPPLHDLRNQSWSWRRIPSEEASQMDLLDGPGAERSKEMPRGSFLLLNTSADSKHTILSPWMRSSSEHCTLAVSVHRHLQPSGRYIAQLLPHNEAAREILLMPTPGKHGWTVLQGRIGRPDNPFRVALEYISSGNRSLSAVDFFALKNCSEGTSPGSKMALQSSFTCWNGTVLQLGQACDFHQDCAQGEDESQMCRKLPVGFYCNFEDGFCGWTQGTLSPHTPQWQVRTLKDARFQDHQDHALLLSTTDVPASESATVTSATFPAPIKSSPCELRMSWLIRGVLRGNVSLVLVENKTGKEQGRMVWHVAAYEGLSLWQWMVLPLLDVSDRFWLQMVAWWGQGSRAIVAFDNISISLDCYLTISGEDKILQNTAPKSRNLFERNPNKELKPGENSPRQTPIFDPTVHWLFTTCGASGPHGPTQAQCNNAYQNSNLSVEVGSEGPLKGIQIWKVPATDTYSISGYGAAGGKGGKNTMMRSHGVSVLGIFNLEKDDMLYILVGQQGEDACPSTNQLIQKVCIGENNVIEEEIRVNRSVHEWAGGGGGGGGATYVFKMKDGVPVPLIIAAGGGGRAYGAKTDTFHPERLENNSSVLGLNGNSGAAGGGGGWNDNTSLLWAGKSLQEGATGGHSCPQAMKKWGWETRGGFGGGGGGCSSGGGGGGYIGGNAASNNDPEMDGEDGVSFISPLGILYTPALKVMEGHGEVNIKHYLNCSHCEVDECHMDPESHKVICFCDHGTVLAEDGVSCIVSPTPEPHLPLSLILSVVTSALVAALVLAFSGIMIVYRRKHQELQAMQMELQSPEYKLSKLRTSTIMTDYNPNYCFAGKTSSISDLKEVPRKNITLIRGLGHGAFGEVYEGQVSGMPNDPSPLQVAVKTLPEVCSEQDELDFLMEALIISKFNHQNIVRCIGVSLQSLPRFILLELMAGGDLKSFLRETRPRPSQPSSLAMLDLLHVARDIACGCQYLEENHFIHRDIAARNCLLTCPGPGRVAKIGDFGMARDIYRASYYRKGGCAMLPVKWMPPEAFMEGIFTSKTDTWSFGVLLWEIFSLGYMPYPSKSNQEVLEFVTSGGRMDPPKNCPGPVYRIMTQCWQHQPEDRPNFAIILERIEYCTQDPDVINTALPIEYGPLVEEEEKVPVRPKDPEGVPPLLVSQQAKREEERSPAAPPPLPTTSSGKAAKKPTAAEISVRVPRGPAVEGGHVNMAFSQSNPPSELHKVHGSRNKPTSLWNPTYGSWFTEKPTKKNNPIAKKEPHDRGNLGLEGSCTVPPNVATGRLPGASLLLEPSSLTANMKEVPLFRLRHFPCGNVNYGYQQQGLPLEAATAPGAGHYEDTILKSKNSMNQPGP

[2] = target: T13, ABL1(M351T)-phosphorylated (Homo sapiens, UniProt P00519, M351T)
T13 construct: purchased DiscoveRx (KINOMEscan service)

[3] = target: T14, TYK2(JH1domain-catalytic) (Homo sapiens, UniProt P29597)
T14 construct: TYK2(JH1domain-catalytic); purchased DiscoveRx KINOMEscan
T14 sequence (P29597 871-1187 limits assumed): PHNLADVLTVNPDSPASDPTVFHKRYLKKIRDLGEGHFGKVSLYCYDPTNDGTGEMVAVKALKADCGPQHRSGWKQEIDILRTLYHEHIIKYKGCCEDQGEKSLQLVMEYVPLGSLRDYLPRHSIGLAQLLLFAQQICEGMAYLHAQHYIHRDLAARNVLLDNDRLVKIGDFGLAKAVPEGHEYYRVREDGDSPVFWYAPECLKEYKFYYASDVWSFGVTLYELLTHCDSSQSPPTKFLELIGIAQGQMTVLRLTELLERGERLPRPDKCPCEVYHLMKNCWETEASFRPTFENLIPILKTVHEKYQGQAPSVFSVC

MEK6 = target: T15, MEK6 (Homo sapiens, UniProt P52564)
T15 construct: purchased DiscoveRx KINOMEscan

FLT1 = target: T16, FLT1 (Homo sapiens, UniProt P17948)
T16 construct: purchased DiscoveRx KINOMEscan

DAPK2 = target: T17, DAPK2 (Homo sapiens, UniProt Q9UIK4)
T17 construct: purchased DiscoveRx KINOMEscan
T17 sequence (Q9UIK4 whole entry): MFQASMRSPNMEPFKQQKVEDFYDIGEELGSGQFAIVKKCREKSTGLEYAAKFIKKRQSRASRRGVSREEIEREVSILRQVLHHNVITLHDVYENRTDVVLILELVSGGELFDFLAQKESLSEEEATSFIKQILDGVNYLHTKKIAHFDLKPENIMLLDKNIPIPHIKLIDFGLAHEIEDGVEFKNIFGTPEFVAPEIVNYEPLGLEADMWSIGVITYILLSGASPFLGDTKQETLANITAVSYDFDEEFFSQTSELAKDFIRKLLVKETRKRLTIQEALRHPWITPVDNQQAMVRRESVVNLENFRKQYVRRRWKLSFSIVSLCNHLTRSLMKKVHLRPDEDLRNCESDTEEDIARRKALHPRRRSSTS

MEK3 = target: T18, MEK3 (Homo sapiens, UniProt P46734)
T18 construct: purchased DiscoveRx KINOMEscan

MEK4 = target: T19, MEK4 (Homo sapiens, UniProt P45985)
T19 construct: purchased DiscoveRx KINOMEscan

S6K1 = target: T20, S6K1 (Homo sapiens, UniProt P23443)
T20 construct: purchased DiscoveRx KINOMEscan

CSF1R-autoinhibited = target: T21, CSF1R-autoinhibited (Homo sapiens, UniProt P07333)
T21 construct: purchased DiscoveRx KINOMEscan
T21 sequence (P07333 539-972 limits assumed): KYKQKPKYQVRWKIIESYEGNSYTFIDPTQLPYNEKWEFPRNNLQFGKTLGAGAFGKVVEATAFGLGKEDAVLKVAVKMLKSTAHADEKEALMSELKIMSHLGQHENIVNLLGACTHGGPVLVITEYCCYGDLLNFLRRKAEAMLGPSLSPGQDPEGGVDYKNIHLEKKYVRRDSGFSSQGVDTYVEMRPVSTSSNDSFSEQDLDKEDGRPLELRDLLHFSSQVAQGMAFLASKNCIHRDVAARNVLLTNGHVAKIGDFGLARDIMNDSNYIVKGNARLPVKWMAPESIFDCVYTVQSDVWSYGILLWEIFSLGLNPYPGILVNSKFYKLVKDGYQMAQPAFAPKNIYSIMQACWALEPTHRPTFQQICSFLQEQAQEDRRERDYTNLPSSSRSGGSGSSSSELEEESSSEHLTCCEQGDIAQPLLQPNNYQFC

[4] = target: T22, RSK4(Kin.Dom.1-N-terminal) (Homo sapiens, UniProt Q9UK32)
T22 construct: RSK4(Kin.Dom.1-N-terminal); purchased DiscoveRx KINOMEscan

PFTAIRE2 = target: T23, PFTAIRE2 (Homo sapiens, UniProt Q96Q40)
T23 construct: purchased DiscoveRx KINOMEscan

FLT3-autoinhibited = target: T24, FLT3-autoinhibited (Homo sapiens, UniProt P36888)
T24 construct: purchased DiscoveRx KINOMEscan

TRPM6 = target: T25, TRPM6 (Homo sapiens, UniProt Q9BX84)
T25 construct: purchased DiscoveRx KINOMEscan

PHKG2 = target: T26, PHKG2 (Homo sapiens, UniProt P15735)
T26 construct: purchased DiscoveRx KINOMEscan
T26 sequence (P15735 whole entry): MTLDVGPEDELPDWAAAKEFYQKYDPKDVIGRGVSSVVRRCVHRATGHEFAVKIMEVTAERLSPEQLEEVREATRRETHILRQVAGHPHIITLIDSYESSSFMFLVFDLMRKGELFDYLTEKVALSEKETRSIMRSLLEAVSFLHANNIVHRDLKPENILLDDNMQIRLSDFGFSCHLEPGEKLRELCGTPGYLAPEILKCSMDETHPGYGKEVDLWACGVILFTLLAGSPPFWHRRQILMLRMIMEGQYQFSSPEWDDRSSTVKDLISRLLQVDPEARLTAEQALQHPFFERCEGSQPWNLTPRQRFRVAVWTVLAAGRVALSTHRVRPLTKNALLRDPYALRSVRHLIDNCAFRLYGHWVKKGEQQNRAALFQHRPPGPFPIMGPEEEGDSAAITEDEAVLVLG

PLK4 = target: T27, PLK4 (Homo sapiens, UniProt O00444)
T27 construct: purchased DiscoveRx KINOMEscan

MYLK = target: T28, MYLK (Homo sapiens, UniProt Q15746)
T28 construct: purchased DiscoveRx KINOMEscan

RIPK2 = target: T29, RIPK2 (Homo sapiens, UniProt O43353)
T29 construct: purchased DiscoveRx KINOMEscan
T29 sequence (O43353 whole entry): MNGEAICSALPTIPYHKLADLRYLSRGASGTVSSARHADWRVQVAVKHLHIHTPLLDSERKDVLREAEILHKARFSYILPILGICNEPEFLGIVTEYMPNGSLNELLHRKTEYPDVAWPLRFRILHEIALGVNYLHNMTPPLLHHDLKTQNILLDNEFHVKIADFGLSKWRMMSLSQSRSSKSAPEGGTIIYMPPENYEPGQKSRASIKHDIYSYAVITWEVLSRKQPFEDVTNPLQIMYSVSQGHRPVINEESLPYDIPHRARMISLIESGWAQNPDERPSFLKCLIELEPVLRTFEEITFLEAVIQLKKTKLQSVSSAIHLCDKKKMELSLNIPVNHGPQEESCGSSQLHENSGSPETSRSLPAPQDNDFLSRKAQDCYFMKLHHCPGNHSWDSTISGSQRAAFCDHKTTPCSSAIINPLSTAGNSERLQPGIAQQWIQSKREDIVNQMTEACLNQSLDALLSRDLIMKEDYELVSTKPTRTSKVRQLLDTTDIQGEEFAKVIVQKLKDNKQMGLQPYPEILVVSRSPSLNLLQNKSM

CSK = target: T30, CSK (Homo sapiens, UniProt P41240)
T30 construct: purchased DiscoveRx KINOMEscan

PIK3C2G = target: T31, PIK3C2G (Homo sapiens, UniProt O75747)
T31 construct: purchased DiscoveRx KINOMEscan

[5] = target: T32, RPS6KA5(Kin.Dom.1-N-terminal) (Homo sapiens, UniProt O75582)
T32 construct: RPS6KA5(Kin.Dom.1-N-terminal); purchased DiscoveRx KINOMEscan

[6] = target: T33, RSK2(Kin.Dom.2-C-terminal) (Homo sapiens, UniProt P51812)
T33 construct: RSK2(Kin.Dom.2-C-terminal); purchased DiscoveRx KINOMEscan

FLT3(K663Q) = target: T34, FLT3(K663Q) (Homo sapiens, UniProt P36888, K663Q)
T34 construct: purchased DiscoveRx KINOMEscan

NEK6 = target: T35, NEK6 (Homo sapiens, UniProt Q9HC98)
T35 construct: purchased DiscoveRx KINOMEscan
T35 sequence (Q9HC98 whole entry): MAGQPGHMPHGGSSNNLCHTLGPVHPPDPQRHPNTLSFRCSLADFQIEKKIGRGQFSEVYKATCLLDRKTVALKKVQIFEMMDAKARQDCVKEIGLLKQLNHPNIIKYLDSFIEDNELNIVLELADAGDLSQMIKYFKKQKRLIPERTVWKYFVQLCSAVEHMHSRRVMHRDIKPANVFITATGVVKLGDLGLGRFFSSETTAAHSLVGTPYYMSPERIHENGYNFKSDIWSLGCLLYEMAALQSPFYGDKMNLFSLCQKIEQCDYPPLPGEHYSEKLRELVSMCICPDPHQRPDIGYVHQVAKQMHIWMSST

`CCN(C(=O)CO)[C@H]1CN(/C(=N\C#N)Nc2cccc(OC(F)F)c2)N=C1c1ccc(Cl)c(Cl)c1` [(S)-4] gave a remaining binding at 1 µM (MELK) of 99%, a remaining binding at 1 µM (STK33) of 83% and a remaining binding at 1 µM (PIK3CA(Q546K)) of 86%. The remaining binding at 1 µM [1] was 100%, the remaining binding at 1 µM (MET(Y1235D)) was 100% and the remaining binding at 1 µM (KIT(A829P)) was 98%. For the same molecule, the remaining binding at 1 µM (MAP3K15) was 69%, the remaining binding at 1 µM (DDR1) was 96% and the remaining binding at 1 µM (MEK5) was 100%. It also gave a remaining binding at 1 µM (TAK1) of 100%, a remaining binding at 1 µM (KIT(V559D,V654A)) of 100% and a remaining binding at 1 µM (ALK) of 93%. The remaining binding at 1 µM [2] was 91%, the remaining binding at 1 µM [3] was 88% and the remaining binding at 1 µM (MEK6) was 74%. It also gave a remaining binding at 1 µM (FLT1) of 95%, a remaining binding at 1 µM (DAPK2) of 100% and a remaining binding at 1 µM (MEK3) of 100%. The remaining binding at 1 µM (MEK4) was 100%, the remaining binding at 1 µM (S6K1) was 87% and the remaining binding at 1 µM (CSF1R-autoinhibited) was 47%. For the same molecule, the remaining binding at 1 µM [4] was 92%, the remaining binding at 1 µM (PFTAIRE2) was 100% and the remaining binding at 1 µM (FLT3-autoinhibited) was 100%. For the same molecule, the remaining binding at 1 µM (TRPM6) was 80%, the remaining binding at 1 µM (PHKG2) was 99% and the remaining binding at 1 µM (PLK4) was 56%. For the same molecule, the remaining binding at 1 µM (MYLK) was 86%, the remaining binding at 1 µM (RIPK2) was 75% and the remaining binding at 1 µM (CSK) was 91%. It also gave a remaining binding at 1 µM (PIK3C2G) of 77%, a remaining binding at 1 µM [5] of 93% and a remaining binding at 1 µM [6] of 100%. It also gave a remaining binding at 1 µM (FLT3(K663Q)) of 100% and a remaining binding at 1 µM (NEK6) of 91%.
